Columns and labels:
[1] = Plasma hydrolysis of (−) CPTA prodrug esters in human plasma (Example 21); assay type: in vitro ADME; settings: human plasma (heparinized, pooled), 125 or 250 μM, 37° C., hydrolysis to (−) CPTA; read-out: Plasma T1/2 (converted)
Experimental: This example illustrates the plasma hydrolysis of various prodrug esters of the (S)-enantiomer of CPTA at physiological conditions. Hydrolysis was monitored and analyzed by HPLC. The hydrolytic product was identified by comparison to authentic (−) CPTA and the hydrolytic rates were calculated. [drawing 83]
Human plasma (heparinized, pooled) was obtained from Golden West Biololgicals Inc., USA; Plasma incubation was carried out in a Water Bath Shaker (New Brunswick Scientific, Inc.); Sample analyses were carried out on Agilent HPLC 1100 system.
Prepare 31.25 or 62.5 mM prodrug stock solutions in 100% DMSO. Add 4 μL of 31.25 or 62.5 mM prodrug stock solutions to 1.0 mL of plasma in a microcentrifuge tube to make plasma concentration at 125 or 250 μM, mix gently. Aliquots of 50 μL are transferred to 15 microcentrifuge vials. Three samples are immediately removed to a freezer at about −80° C. (0 time point), the remaining samples are incubated in a bath shaker at 37° C. Three samples are removed at 30 min, 2, 7 and 24 hr, and stored at −80° C. until analysis. The relative concentrations of MBX-compounds are determined by HPLC methods. If there are enough data points, the hydrolytic rate can be calculated using WinNonlin software. Table 10 provides a summary of plasma half-lives of some pro-drug esters and FIGS. 20A-20G illustrate the hydrolytic curves of those prodrug esters.

[2] = test system: C57BL/6J ob/ob mice; assay: Glucose lowering activity of halofenate analogs in ob/ob mice (Example 12); assay type: in vivo; settings: for Predose Glucose: baseline before dosing

Structure (SMILES): C#CCOC(=O)C(Oc1cccc(C(F)(F)F)c1)c1ccc(Cl)cc1 (single isomer, unassigned; (-)) [Compound 19.3, (−)-propargyl 4-chloro-alpha-(3-trifluoromethylphenoxy)benzeneacetate]
- half-life [1]: < 1 h

Structure (SMILES): CS(=O)(=O)NCCOC(=O)C(Oc1cccc(C(F)(F)F)c1)c1ccc(Cl)cc1 (single isomer, unassigned) [Compound 19.10]
- half-life [1]: < 1 h

Structure (SMILES): CC(=O)NCCOC(=O)C(Oc1cccc(C(F)(F)F)c1)c1ccc(Br)cc1 (racemic) [(±)Analog 29]
- 6 hours Glucose ([2]; 125 mg/kg oral once a day): 299.7 ± 24.5 mg/dL
- 30 hours Glucose ([2]; 125 mg/kg oral once a day): 237.4 ± 14.9 mg/dL
- 54 hours Glucose ([2]; 125 mg/kg oral once a day): 293.3 ± 9.7 mg/dL
- Predose Glucose ([2]; 125 mg/kg group): 387.1 ± 16.0 mg/dL

Structure (SMILES): O=C(NCCOC(=O)C(Oc1cccc(C(F)(F)F)c1)c1ccc(Cl)cc1)c1ccccc1 (single isomer, unassigned) [Compound 19.4]
- half-life [1]: < 1 h

Structure (SMILES): NC(=O)COC(=O)C(Oc1cccc(C(F)(F)F)c1)c1ccc(Cl)cc1 (racemic) [(±)Analog 37]
- 6 hours Glucose ([2]; 125 mg/kg oral once a day): 345.4 ± 19.7 mg/dL
- 30 hours Glucose ([2]; 125 mg/kg oral once a day): 312.5 ± 21.7 mg/dL
- 54 hours Glucose ([2]; 125 mg/kg oral once a day): 285.1 ± 14.7 mg/dL
- time points with significantly lowered plasma glucose ([2]; 125 mg/kg oral once a day): 54 h
- Predose Glucose ([2]; 125 mg/kg group): 387.4 ± 18.8 mg/dL

Structure (SMILES): NC(=O)C1CCCN1C(=O)COC(=O)C(Oc1cccc(C(F)(F)F)c1)c1ccc(Cl)cc1 (single isomer, unassigned) [Compound 19.16]
- half-life [1]: < 0.5 h

Structure (SMILES): CN(C)C(=O)COC(=O)C(Oc1cccc(C(F)(F)F)c1)c1ccc(Cl)cc1 (single isomer, unassigned; (-)) [(−)Analog 38]
- Predose Glucose ([2]; 150 mg/kg group): 373.4 ± 16.1 mg/dL
- 6 hours Glucose ([2]; single oral dose 150 mg/kg): 251.2 ± 23.6 mg/dL
- time points with significantly reduced plasma glucose ([2]; single oral dose 150 mg/kg): 6 h

Structure (SMILES): O=C(OCC(=O)N1CCOCC1)C(Oc1cccc(C(F)(F)F)c1)c1ccc(Cl)cc1 (single isomer, unassigned) [Compound 19.5]
- half-life [1]: < 0.5 h

Structure (SMILES): CC(C)C(=O)NCCOC(=O)C(Oc1cccc(C(F)(F)F)c1)c1ccc(Cl)cc1 (single isomer, unassigned) [Compound 19.15]
- half-life [1]: < 1 h

Structure (SMILES): CC(OC(=O)OC1CCCCC1)OC(=O)C(Oc1cccc(C(F)(F)F)c1)c1ccc(Cl)cc1 (single isomer, unassigned; (-)) [Compound 19.27, (−)-1-(cyclohexyloxycarbonyloxy)ethyl 4-chloro-alpha-(3-trifluoromethylphenoxy)benzeneacetate]
- half-life [1]: < 1 h

Structure (SMILES): CCOC(=O)COC(=O)C(Oc1cccc(C(F)(F)F)c1)c1ccc(Cl)cc1 (single isomer, unassigned) [Compound 19.12]
- half-life [1]: < 0.5 h

Structure (SMILES): CN(C)C(=O)COC(=O)C(Oc1cccc(C(F)(F)F)c1)c1ccc(Cl)cc1 (single isomer, unassigned) [Compound 19.11]
- half-life [1]: < 0.5 h

Structure (SMILES): O=C(OCC(=O)N1CCC1)C(Oc1cccc(C(F)(F)F)c1)c1ccc(Cl)cc1 (single isomer, unassigned) [Compound 19.13]
- half-life [1]: < 0.5 h

Structure (SMILES): NC(=O)COC(=O)C(Oc1cccc(C(F)(F)F)c1)c1ccc(Cl)cc1 (single isomer, unassigned; (-)) [(−)Analog 37]
- Predose Glucose ([2]; 150 mg/kg group): 373.4 ± 16.1 mg/dL
- 6 hours Glucose ([2]; single oral dose 150 mg/kg): 271.7 ± 22.5 mg/dL
- time points with significantly reduced plasma glucose ([2]; single oral dose 150 mg/kg): 6 h

Structure (SMILES): CCCCOC(=O)C(Oc1cccc(C(F)(F)F)c1)c1ccc(Cl)cc1 (racemic) [(±)Analog 33]
- 6 hours Glucose ([2]; 125 mg/kg oral once a day): 227.5 ± 13.2 mg/dL
- 30 hours Glucose ([2]; 125 mg/kg oral once a day): 298.0 ± 15.3 mg/dL
- 54 hours Glucose ([2]; 125 mg/kg oral once a day): 286.6 ± 9.9 mg/dL
- Predose Glucose ([2]; 125 mg/kg group): 292.0 ± 19.1 mg/dL

Structure (SMILES): O=C(NCCOC(=O)C(Oc1cccc(C(F)(F)F)c1)c1ccc(Cl)cc1)c1ccccc1 (single isomer, unassigned; (-)) [(−)Analog 36]
- Predose Glucose ([2]; 150 mg/kg group): 373.2 ± 15.5 mg/dL
- 6 hours Glucose ([2]; single oral dose 150 mg/kg): 281.1 ± 18.2 mg/dL
- time points with significantly reduced plasma glucose ([2]; single oral dose 150 mg/kg): 6 h

Structure (SMILES): O=C(OCc1ccccc1)C(Oc1cccc(C(F)(F)F)c1)c1ccc(Cl)cc1 (single isomer, unassigned; (-)) [Compound 19.6, (−)-benzyl 4-chloro-alpha-(3-trifluoromethylphenoxy)benzeneacetate]
- half-life [1]: 6.3 h

Structure (SMILES): O=C(NCCOC(=O)C(Oc1cccc(C(F)(F)F)c1)c1ccc(Cl)cc1)c1cccnc1 (single isomer, unassigned) [Compound 19.20]
- half-life [1]: < 0.5 h

Structure (SMILES): CC(=O)OCCOC(=O)C(Oc1cccc(C(F)(F)F)c1)c1ccc(Cl)cc1 (single isomer, unassigned) [Compound 19.23]
- half-life [1]: < 1 h

Structure (SMILES): NCC(=O)OCCOC(=O)C(Oc1cccc(C(F)(F)F)c1)c1ccc(Cl)cc1 (single isomer, unassigned) [Compound 19.28]
- half-life [1]: < 0.5 h

Structure (SMILES): CCOC(=O)NCCOC(=O)C(Oc1cccc(C(F)(F)F)c1)c1ccc(Cl)cc1 (single isomer, unassigned; (-)) [Compound 19.9, (−)-2-ethoxycarbonylaminoethyl 4-chloro-alpha-(3-trifluoromethylphenoxy)benzeneacetate]
- half-life [1]: < 1 h

Structure (SMILES): CN(C)C(=O)COC(=O)C(Oc1cccc(C(F)(F)F)c1)c1ccc(Cl)cc1 (racemic) [(±)Analog 38]
- 6 hours Glucose ([2]; 125 mg/kg oral once a day): 303.2 ± 18.2 mg/dL
- 30 hours Glucose ([2]; 125 mg/kg oral once a day): 245.6 ± 15.6 mg/dL
- 54 hours Glucose ([2]; 125 mg/kg oral once a day): 243.1 ± 10.6 mg/dL
- Predose Glucose ([2]; 125 mg/kg group): 329.4 ± 18.9 mg/dL

Structure (SMILES): O=C(NCCOC(=O)C(Oc1cccc(C(F)(F)F)c1)c1ccc(Cl)cc1)c1ccccc1 (racemic) [(±)Analog 36]
- 6 hours Glucose ([2]; 125 mg/kg oral once a day): 300.5 ± 27.3 mg/dL
- 30 hours Glucose ([2]; 125 mg/kg oral once a day): 249.7 ± 8.6 mg/dL
- 54 hours Glucose ([2]; 125 mg/kg oral once a day): 272.2 ± 18.4 mg/dL
- Predose Glucose ([2]; 125 mg/kg group): 329.7 ± 17.6 mg/dL

Structure (SMILES): COCCOC(=O)C(Oc1cccc(C(F)(F)F)c1)c1ccc(Cl)cc1 (single isomer, unassigned; (-)) [Compound 19.8, (−)-2-methoxyethyl 4-chloro-alpha-(3-trifluoromethylphenoxy)benzeneacetate]
- half-life [1]: < 2 h

Structure (SMILES): O=C(Oc1ccccc1)C(Oc1cccc(C(F)(F)F)c1)c1ccc(Cl)cc1 (single isomer, unassigned) [Compound 19.25]
- half-life [1]: < 0.5 h

Structure (SMILES): C=CCOC(=O)C(Oc1cccc(C(F)(F)F)c1)c1ccc(Cl)cc1 (single isomer, unassigned) [Compound 19.1]
- half-life [1]: 5.5 h

Structure (SMILES): CC(=O)NCCOC(=O)C(Oc1cccc(C(F)(F)F)c1)c1ccc(F)cc1 (racemic) [(±)Analog 14]
- 6 hours Glucose ([2]; 125 mg/kg oral once a day): 328.9 ± 34.1 mg/dL
- 30 hours Glucose ([2]; 125 mg/kg oral once a day): 267.0 ± 21.3 mg/dL
- 54 hours Glucose ([2]; 125 mg/kg oral once a day): 293.0 ± 29.4 mg/dL
- Predose Glucose ([2]; 125 mg/kg group): 361.0 ± 17.1 mg/dL

Structure (SMILES): Cc1oc(=O)oc1COC(=O)C(Oc1cccc(C(F)(F)F)c1)c1ccc(Cl)cc1 (single isomer, unassigned) [Compound 19.24]
- half-life [1]: < 0.5 h

Structure (SMILES): O=C(NCCOC(=O)C(Oc1cccc(C(F)(F)F)c1)c1ccc(Cl)cc1)c1ccncc1 (single isomer, unassigned) [Compound 19.26]
- half-life [1]: < 1 h

Structure (SMILES): COC(=O)C1CCCN1C(=O)COC(=O)C(Oc1cccc(C(F)(F)F)c1)c1ccc(Cl)cc1 (single isomer, unassigned) [Compound 19.19]
- half-life [1]: < 0.5 h

Structure (SMILES): O=C(OCc1cccnc1)C(Oc1cccc(C(F)(F)F)c1)c1ccc(Cl)cc1 (single isomer, unassigned) [Compound 19.18]
- half-life [1]: < 1 h

Structure (SMILES): O=C(NCCOC(=O)C(Oc1cccc(C(F)(F)F)c1)c1ccc(Cl)cc1)OCc1ccccc1 (single isomer, unassigned) [Compound 19.21]
- half-life [1]: < 2 h

Structure (SMILES): O=C(OCCO)C(Oc1cccc(C(F)(F)F)c1)c1ccc(Cl)cc1 (single isomer, unassigned) [Compound 19.14]
- half-life [1]: < 2 h

Structure (SMILES): COCC(=O)NCCOC(=O)C(Oc1cccc(C(F)(F)F)c1)c1ccc(Cl)cc1 (single isomer, unassigned) [Compound 19.17]
- half-life [1]: < 1 h

Structure (SMILES): CC(=O)NCCOC(=O)C(Oc1cccc(C(F)(F)F)c1)c1ccc(Br)cc1 (single isomer, unassigned; (-)) [(−)Analog 29]
- Predose Glucose ([2]; 150 mg/kg group): 372.2 ± 17.1 mg/dL
- 6 hours Glucose ([2]; single oral dose 150 mg/kg): 333.5 ± 16.1 mg/dL
- time points with significantly reduced plasma glucose ([2]; single oral dose 150 mg/kg): 6 h

Structure (SMILES): O=C(NCCOC(=O)C(Oc1cccc(C(F)(F)F)c1)c1ccc(Cl)cc1)c1cccs1 (single isomer, unassigned) [Compound 19.2]
- half-life [1]: < 1 h

Structure (SMILES): CCOC(=O)C(Oc1cccc(C(F)(F)F)c1)c1ccc(Cl)cc1 (single isomer, unassigned) [Compound 19.7]
- half-life [1]: < 7 h

Source: patent publication US20040039053A1, “Use of(-) (3-halomethylphenoxy) (4-halophenyl) acetic acid derivatives for treatment of insulin resistance, type 2 diabetes, hyperlipidemia and hyperuricemia” (priority 2000, published 2004)
